“And” between values parts separate entries of the source, which are not always exact repeats. Identical values can stand only once. Like-named read-outs stand apart in the source and are kept apart here.
Legend:
[1] = system: HeLa (cervical adenocarcinoma) cells; assay: MTT antiproliferative assay, HeLa; assay type: cell-based; details: Homo sapiens, 72 h, mean ± SD of three independent experiments
Outline: (§1)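 Readout: MTT formazan absorbance at 595 nm after a 72 h compound exposure (10^−7–10^−4 M, 10-fold steps). Viability is expressed as background-corrected % of untreated control, and GI50 is fitted by a variable-slope curve.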

[2] = system: CaCo-2 (colon adenocarcinoma) cells; assay: MTT antiproliferative assay, CaCo-2; assay type: cell-based, human; details: for IC50: Homo sapiens, Caco-2, 72 h, MTT, mean ± SD of three independent experiments; for SI (MDCK) CaCo-2: SI = IC50 MDCK1 / IC50 CaCo-2
Outline: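 CaCo-2 cells, plated at 2 × 10^4 cells/mL in DMEM with 10 % FBS at 37 °C/5% CO2, were treated 24 h later with five 10-fold dilutions (10^−7 to 10^−4 M) for 72 h. Viability was measured by MTT (4 h, formazan dissolved in DMSO, OD 595 nm) against background and untreated controls. GI50 came from log-concentration versus percent-inhibition fits.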

[3] = system: HuT78 (T-cell lymphoma) cells; assay: MTT antiproliferative assay, HuT78; assay type: cell-based, human; details: for IC50: 72 h, MTT, mean ± SD of three independent experiments; for SI (MDCK) HuT78: SI = IC50 MDCK1 / IC50 HuT78; for SI (BJ) HuT78: SI = IC50 BJ / IC50 HuT78
Outline: as §1

[4] = system: SW620 (colorectal adenocarcinoma, metastatic) cells; assay: MTT antiproliferative assay, SW620; assay type: cell-based, human; details: for IC50: Homo sapiens, SW-620
Procedure: (§2) The growth inhibition activity was assessed according to the slightly modified procedure performed at the National Cancer Institute, Developmental Therapeutics Program.
(§3) Examined compounds were dissolved in DMSO (1 × 10^−2 M). The experiments were carried out on seven human tumor cell lines and two normal cell lines. The following cell lines were used: HeLa (human cervical adenocarcinoma; purchased from ATCC), CaCo-2 (human colorectal adenocarcinoma), HuT78 (T-cell lymphoma), THP-1 (acute monocytic leukemia), SW620 (colorectal adenocarcinoma, metastatic), MDA-MB-231 (human breast adenocarcinoma), HL60 (promyelocytic leukemia cell line), foreskin fibroblast cells (BJ) and MDCK1 (Madine–Darby canine kidney fibroblast like cells). MDCK1 cells were used between 24 and 26 passages.
(§4) Adherent cells were cultured in the Dulbecco’s modified Eagle medium—DMEM (Gibco, EU) supplemented with 10 % heat-inactivated fetal bovine serum (FBS, Gibco, EU), 2 mM glutamine, and 100 U/0.1 mg penicillin/streptomycin. Cells on suspension were cultured in RPMI 1640 (Gibco, EU) medium supplemented with 10 % FBS (Gibco, EU), 2 mM glutamine, 1 mM sodium pyruvate, 10 mM HEPES. Cells were grown in humidified atmosphere under the conditions of 37 °C/5% of CO2 gas in the CO2 incubator (IGO 150 CELLlife^TM, JOUAN, Thermo Fisher Scientific, Waltham, MA, USA). A erythrosin B (Sigma-Aldrich, St. Louis, MO, USA) dye exclusion method was used to assess cell viability before plating.
(§5) Adherent cells (HeLa, CaCo-2, MCF-7 and MDCK-1) were plated in 96-well flat bottom plates (Greiner, Frickenhausen, Austria) at a concentration of 2 × 10^4 cells/mL. Suspension cells (THP-1 and HuT78) were plated in 96-well microtiter plates (Sarstead, Newton, USA) at a concentration of 1 × 10^5 cells/mL. Twenty-four hours later, cells were treated with test agents in […] 10-fold dilutions ([…] to 10^−4 M) and incubated for further 72 h. Working dilutions were freshly prepared on the day of testing. The solvent was also tested for eventual inhibitory activity by adjusting its concentration to be the same as in working concentrations. After 72 h of incubation, the cell growth rate was evaluated by performing the MTT assay, which detects dehydrogenase activity in viable cells. For this purpose, upon completion of the incubation period, growth medium was discarded and 50 μL of MTT was added to each well at a concentration of 5 mg/mL. After four hours of incubation at 37 °C, water insoluble MTT-formazan crystals were dissolved in 150 μL of dimethyl-sulfoxide (DMSO) for adherent cells, and in 10 % SDS with 0.01 M/L HCl for cells grown in suspension. The absorbance (OD, optical density) was measured on a microplate reader (iMark, BIO RAD, Hercules, CA, USA) at 595 nm.
(§6) Percent of life cells was calculated as follows: % = OD (sample)–OD (background)/OD (control)–OD (background) × 100.
(§7) Optical density (OD) of background for adherent cells is the OD of MTT solution and DMSO; OD (background) for suspension cells is OD of the culture medium with MTT and 10% SDS with 0.01 M/L HCl; OD (control) is the OD of the cells growth without tested compounds.
(§8) Calculation of GI50 value curves and QC analysis is performed by using the Excel tools and GraphPadPrism software (La Jolla, CA), v. 5.03. Briefly, individual concentration effect curves are generated by plotting the logarithm of the concentration of tested compounds(X) vs. corresponding percent inhibition values (Y) using least squares fit. The best fit GI50 values are calculated using Log (inhibitor) versus normalized response—Variable slope equation, where Y Ľ 100/(1 ţ 10 ((LogIC50 _ X) * HillSlope)). QC criteria parameters (Z0, S:B, R2, HillSlope) were checked for every GI50 curve.

[5] = system: MDA-MB-231 (human breast adenocarcinoma) cells; assay: MTT antiproliferative assay, MDA-MB-231; assay type: cell-based; details: for IC50: Homo sapiens, MDA-MB-231, 72 h, MTT, mean ± SD of three independent experiments; for SI (MDCK) MDA-MB-231: SI = IC50 MDCK1 / IC50 MDA-MB-231
Procedure: as §2, §3, §4, §5, §6, §7, §8

[6] = system: HL60 (promyelocytic leukemia) cells; assay: MTT antiproliferative assay, HL60; assay type: cell-based, human; details: for IC50: Homo sapiens, HL-60, 72 h, MTT, mean ± SD of three independent experiments; for SI (BJ) HL60: SI = IC50 BJ / IC50 HL60; for SI (MDCK) HL60: SI = IC50 MDCK1 / IC50 HL60
Procedure: as §2, §3, §4, §5, §6, §7, §8

[7] = system: THP1 (human monocytic leukemia) cells; assay: MTT antiproliferative assay, THP1; assay type: cell-based; details: for IC50: Homo sapiens, THP-1, 72 h, MTT, mean ± SD of three independent experiments; for SI (BJ) THP1: SI = IC50 BJ / IC50 THP1; for SI (MDCK) THP1: SI = IC50 MDCK1 / IC50 THP1
Procedure: as §2, §3, §4, §5, §6, §7, §8

[8] = system: MDCK1 (Madin–Darby canine kidney) cells; assay: MTT antiproliferative assay, non-tumor MDCK1 cells; assay type: cell-based; details: Canis lupus familiaris, MDCK1, 72 h, mean ± SD of three independent experiments, normal cells
Outline: as §1

human fibroblasts (BJ) = assay: MTT antiproliferative assay, normal BJ fibroblasts; assay type: cell-based; details: for IC50: Homo sapiens, Fibroblast, 72 h, MTT, mean ± SD of three independent experiments, normal cells
Outline: as §1

HuT78 cells = assay: Cell cycle analysis (PI, flow cytometry); assay type: cell-based, human; details: HuT78, 5 µM, 24 h, versus untreated cells
Procedure: The HuT78 cells were plated in 6-well plates at a concentration of 5 × 10^5 cells per well and treated 24 h and 48 h with selected compounds 36c, 42a, 42c, 45a, 45b, 45c and 46c at a concentration of 5 μM. After drug treatment, the cells were fixed with ice-cold 70% ethanol in phosphate-buffered saline (PBS) and incubated with 0.3 μg/mL propidium iodide for 30 min at room temperature. Before being analyzed by flow cytometry (BD FACSCalibur, Becton Dickinson, San Jose, CA, SAD), samples were treated with 0.4 μg/mL RNase A for 5 min at room temperature. The resultant DNA histograms were generated and analyzed using FlowJo 7.6 software (Treestar, Inc, Ashland, OR, USA). Experiments were done in duplicate and the quantitative data are reported as average value ± standard deviation. Comparisons between control (non-treated) and treated groups were done using one-way analysis of variance (ANOVA) with Tukey–Kramer’s post hoc test with MedCalc statistical program. P-value less than 0.05 was considered statistically significant.

[9] = 72 h, MTT, mean ± SD of three independent experiments, read-out: IC50 (µM) SW620

Row | SMILES | IC50 [1] [µM] | IC50 [2] [µM] | IC50 ([3]; Homo sapiens, HuT78, 72 h) [µM] | SI (MDCK) HuT78 [3] | IC50 [4, 9] [µM] | IC50 [5] [µM] | IC50 [6] [µM] | IC50 [7] [µM] | IC50 [8] [µM] | IC50 (human fibroblasts (BJ)) [µM] | SI (BJ) HuT78 [3] | SI (BJ) HL60 [6] | SI (MDCK) HL60 [6] | SI (BJ) THP1 [7] | SI (MDCK) THP1 [7] | other results
1 | Cl.c1cc(-c2nc3ccc(C4=NCCN4)cc3s2)ccc1OCc1c[nH]nn1 [36a, 2-(4-((1H-1,2,3-triazol-4-yl)methoxy)phenyl)-6-(4,5-dihydro-1H-imidazol-2-yl)benzothiazole hydrochloride] | 62.6 ± 22 | 24.8 ± 9.2 | 4.4 ± 3.9 | 7.23 | 5.6 ± 1.2 | 33 ± 4.9 | 18.8 ± 1.1 | 20.4 ± 3.3 |  |  |  |  |  |  |  | IC50 ([4]; span over SW620, MDA-MB-231, HL60, THP1, read-out: IC50 values on additional set of tumor cells): 5.6 to 33 µM; melting point: 218 to 221 °C
2 | COc1cc(-c2nc3ccc(C4=NCCN4)cc3s2)ccc1OCc1c[nH]nn1.Cl [36c, 2-(3-Methoxy-4-((1H-1,2,3-triazol-4-yl)methoxy)phenyl)-6-(4,5-dihydro-1H-imidazol-2-yl)benzothiazole hydrochloride] | > 100 | > 100 | 1.6 ± 0.8 | 62.5 | > 100 | > 100 | > 100 | > 100 | > 100 | > 100 |  |  |  |  |  | 
3 | O=C(COc1ccc(-c2nc3ccc(C4=NCCCN4)cc3s2)cc1F)c1ccccc1 [38b] | 22.1 ± 1.2 | 19.4 ± 4.7 | 4 ± 0.9 | 6.65 | 30.5 ± 9.2 | 42.4 ± 7.2 | 15.8 ± 2.3 | 14.7 ± 4.1 | 26.6 ± 3.1 | 32.2 ± 2.8 | 8.05 | 2.04 | 1.68 | 2.19 | 1.8 | SI (BJ) CaCo-2 ([2]; SI = IC50 BJ / IC50 CaCo-2): 1.66; SI (MDCK) CaCo-2 [2]: 1.37
4 | COc1cc(-c2nc3ccc(C4=NCCCN4)cc3s2)ccc1OCc1ccccn1 [39c] | > 100 | 34.7 ± 2.8 | 12.7 ± 0.9 | 7.87 | 34.2 ± 7.1 | 38.5 ± 1.6 | 31.1 ± 3 | 69.7 ± 6.3 | > 100 | 38.1 ± 1.4 | 3 |  | 3.22 |  | 1.43 | SI (MDCK) CaCo-2 [2]: 2.87; SI (MDCK) SW620 ([4]; SI = IC50 MDCK1 / IC50 SW620): 2.92; SI (MDCK) MDA-MB-231 [5]: 2.6
5 | O=C(COc1ccc(-c2nc3ccc(C4=NCCCN4)cc3[nH]2)cc1)c1ccccc1 [42a] | > 100 | > 100 | 7 ± 5.2 | 14.29 | > 100 | 76.3 ± 11.8 | 33.2 ± 1.8 | 44.5 ± 5.3 | > 100 | > 100 | 14.29 | 3.01 | 3.01 | 2.25 | 2.25 | SI (BJ) MDA-MB-231 ([5]; SI = IC50 BJ / IC50 MDA-MB-231): 1.31; SI (MDCK) MDA-MB-231 [5]: 1.31
6 | O=C(COc1ccc(-c2nc3ccc(C4=NCCCN4)cc3[nH]2)cc1F)c1ccccc1 [42b] | > 100 | > 100 | 11.9 ± 3.6 | 5.66 | 92.7 ± 34.3 | 84.5 ± 18.3 | 44.4 ± 12.6 | > 100 | 67.3 ± 12.7 | 47 ± 3.3 | 3.95 |  | 1.51 |  |  | 
7 | c1ccc(COc2ccc(-c3nc4ccc(C5=NCCCN5)cc4[nH]3)cc2)nc1 [43a] | > 100 | > 100 | 28.6 ± 3.9 | 3.5 | > 100 | > 100 | 40.4 ± 12 | 29.7 ± 8.6 | > 100 | 33 ± 20.3 |  |  | 2.48 |  | 3.37 | 
8 | c1ccc(Cn2cc(COc3ccc(-c4nc5ccc(C6=NCCCN6)cc5[nH]4)cc3)nn2)cc1 [45a] | > 100 | > 100 | 4.8 ± 3.6 | 20.83 | > 100 | > 100 | 48.1 ± 16.4 |  | > 100 |  |  | 1.15 | 2.07 | 69.5 and 70 | 125 | G2/M phase cell fraction (HuT78 cells): decrease in G2/M phase
9 | COc1cc(-c2nc3ccc(C4=NCCCN4)cc3[nH]2)ccc1OCc1cn(CCN2CCOCC2)nn1 [46c] | > 100 | > 100 | 4.1 | 19.6 | > 100 | > 100 | 50.7 ± 20.5 | > 100 | > 100 | > 100 |  | 1.97 | 1.97 |  |  | toxicity to normal BJ cells (in words) (human fibroblasts (BJ)): not toxic; IC50 [3]: 5.1 ± 4.2 µM

Source: paper PMC9785280, “Synthesis, Antiproliferative Evaluation and QSAR Analysis of Novel Halogen- and Amidino-Substituted Benzothiazoles and Benzimidazoles” (International Journal of Molecular Sciences, 2022)
